Assays:
[1] = tested on: weed plants such as Avena spp., Lolium multiflorum, Stellaria media, Setaria spp., Sinapis alba and Amaranthus retroflexus; experiment: Pre-emergence herbicidal activity (pot test under glass); format: in vivo; details: applied pre-emergence at a rate of 2 kg or less of active substance per hectare; WP formulation; visual scoring after 3 weeks vs untreated controls
Excerpt: 1. Pre-Emergence Herbicidal Activity Seeds of monocot and dicot weed and crop plants are planted out in sandy loam soil in wood fiber pots and covered with soil. The test compounds, formulated as wettable powders (WP), are then applied to the surface of the soil cover, in the form of an aqueous suspension, at a water application rate of 600 I/ha (converted), in various dosages, with the addition of 0.2% of wetting agent. After the treatment, the pots are set up under glass and held under good growth conditions for the test plants. Visual scoring of the emergence damage to the trial plants is made after a trial period of 3 weeks in comparison with untreated controls (herbicidal activity in percent (%): 100% activity=plants have died, 0% activity=like control plants).

[2] = tested on: weed plants such as Sinapis alba, Echinochloa crus-galli, Cyperus iria, Avena spp., Stellaria media, Setaria spp., and Amaranthus retroflexus; experiment: Post-emergence herbicidal activity (pot test under glass); format: in vivo; details: applied post-emergence (one-leaf stage) at a rate of 2 kg or less of active substance per hectare; WP formulation; visual scoring after about 3 weeks vs untreated controls
Method: 2. Post-Emergence Herbicidal Activity Seeds of monocot and dicot weed and crop plants are planted out in sandy loam soil in wood fiber pots, covered with soil, and cultivated under glass under good growth conditions. Two-three weeks after sowing, the trial plants are treated at the one-leaf stage. The test compounds, formulated as wettable powders (WP), are then sprayed onto the green parts of the plants, at a water application rate of 600 I/ha (converted), in various dosages, with the addition of 0.2% of wetting agent. After the trial plants have stood for about 3 weeks under glass under optimum growth conditions, the effect of the products is scored visually in comparison with untreated controls. (herbicidal activity in percent (%): 100% activity=plants have died, 0% activity=like control plants).

| Compound | herbicidal activity against weed plants, pre-emergence [1] | herbicidal activity against weed plants, post-emergence [2] |
| --- | --- | --- |
| CC1(C)CC(S(=O)(=O)C(Cl)c2ccccc2)=NO1 (stereo not drawn) [Compound I-1.1, 3-{[Chloro(phenyl)methyl]sulfonyl}-5,5-dimethyl-4,5-dihydroisoxazole] | very good herbicidal activity | very good herbicidal activity |
| CC1(C)CC([S+]([O-])C(Cl)c2ccccc2)=NO1 (stereo not drawn) [III-1.1] | very good herbicidal activity | very good herbicidal activity |
| CC1(C)CC([S+]([O-])C(Cl)c2c(F)cccc2Cl)=NO1 (stereo not drawn) [III-5.1, 3-{[Chloro(2-chloro-6-fluorophenyl)methyl]sulfinyl}-5,5-dimethyl-4,5-dihydroisoxazole] | very good herbicidal activity | very good herbicidal activity |

Source: patent publication US20070161513A1, “3-[1-halo-1-arylmethanesulfonyl]- and 3-[1-halo-1-heteroarylmethanesulfonyl]- isoxazoline derivatives, processes for preparing them, and use as herbicides and plant growth regulators” (Bayer CropScience GmbH, priority 2005, published 2007)
